Where two headings read alike, the source gives them in different places.

One data set relates to most sensitive bacteria. Further details: method as in Bhongsatiern et al., 2015; Bruniera et al., 2015. To be noted: ref Bhongsatiern et al., 2015, Bruniera et al.; cited from earlier work.
On the set-up of data set [1]: method as in 3 sources, one per row (each row's own in cited_ref): ref Adane et al., 2015; Lin et al., 2016 ||| ref Ji et al., 2018 ||| ref Lin et al., 2019. To be noted: ref Adane et al., 2015, Lin et al., 2016, cited from earlier work.
Data set [2] is described as follows: Population pharmacokinetic modeling (NONMEM, one-compartment) of intravenous vancomycin from TDM trough plasma concentrations in kidney transplant recipients. The settings on record: for Typical value of V / Typical value of CL: intravenous vancomycin, 56 adult kidney transplant recipients.
Protocol: All these patients adopted routine therapeutic drug monitoring. The transplant surgeries were performed between March 8 and June 21 in 2017. […] The glomerular filtration rate (GFR) was estimated from the sCr according to the published formula [GFR (ml min^-1): GFR = 2.104*sCr(μM) - 1.154*age - 1.154*(0.742 for female)*1.233(correction for Chinese)]
Other concomitantly used drugs, such as prednisone, mycophenolate mofetil, cyclosporine, and tacrolimus were administered orally or intravenously once or twice a day, and their usages and doses were based on clinical necessity and safety.
The venous blood was centrifuged at 1,000 g for 4 min and a volume of 100 ml supernatant plasma was mixed with 100 ml of 5% perchloric acid solution. The mixture was fully vortex blended and then centrifuged at 14,000 g for 5 min. […] AHC-C18 column (250 mm × 4.6 mm, 5 μm; ShimadzuCo., Japan), a precolumn (10 mm × 4 mm, 5 μm; ShimadzuCo.), and a PDA detector (ShimadzuCo.) were used in the workstation. The mobile phase was acetonitrile in 0.01 M KH2PO4 solution (7:93 in volume), the flow rate was 0.5 ml min^-1, the column temperature was 30°C, and the detection wavelength was 236 nm. […] After using the same parallel method for sample preparation as mentioned above, the standard samples were simultaneously injected with the samples for testing.
Data processing and pharmacokinetic analysis were carried out with the nonlinear mixed-effects model program (NONMEM®, Version 7.4; Icon Inc, PA, USA), compiled with GFortran (Version 4.9.2; http://www.gfortran.org). The output was explored by the R package (Version 3.3.1; http://www.r-project.org) and Xpose (Version 4.5.3; http://xpose.sourceforge.net). The first-order conditional estimation method with η-ε interaction (FOCE-I) was used throughout the model-building procedure.
First, we established the base compartment model. For the statistical modeling, exponential model was used as the inter-individual variation model:
For the residual variation modeling, additive, proportional, and mixed models were applied. The additive and proportional mixed model is as follows:
In the forward model building step, the covariates were assessed for their suitability depending on the changes in the objective function values (OFV) and the inter-individual variations and residual variations. Taking an example with df = 1, when the decrease of OFV is more than 3.84 (P < 0.05, df = 1), the introduced factor can be considered as a significant covariate for the parameter model. During the backward analysis, a covariate was removed from the model every time, except when the OFV value increased by more than 6.63 units (P < 0.01, df = 1).
For the effects of continuous variables on pharmacokinetic parameters, linear, exponential, and power function models were used. The linear function model was:

For the molecule `CN[C@H](CC(C)C)C(=O)N[C@H]1C(=O)N[C@@H](CC(N)=O)C(=O)N[C@H]2C(=O)N[C@H]3C(=O)N[C@H](C(=O)N[C@H](C(=O)O)c4cc(O)cc(O)c4-c4cc3ccc4O)[C@H](O)c3ccc(c(Cl)c3)Oc3cc2cc(c3O[C@@H]2O[C@H](CO)[C@@H](O)[C@H](O)[C@H]2O[C@H]2C[C@](C)(N)[C@H](O)[C@H](C)O2)Oc2ccc(cc2Cl)[C@H]1O` [vancomycin], the “minimum inhibitory concentration (MIC)” value with most sensitive bacteria is 0.1 to 2 µg/mL. In addition, the Vancomycin clearance in data set [1] (adult Chinese patients with post-craniotomy meningitis, typical creatinine clearance rate 104.7 ml/min) is recorded as 7.56 L/h; in data set [1] (patients with augmented renal clearance) it was 8.52 L/h. Also, the “Typical value of V” value is 45.5 L in data set [2] (base model, one-compartment, 195 plasma Cmin) and 63.2 L in data set [2] (final model, V=63.2×[(WT/59.95)^0.934]). Moreover, the “Typical value of CL” value in data set [2] (base model, one-compartment, 195 plasma Cmin, HPLC, FOCE-I) turned out to be 1.84 L/h; in data set [2] (final model, CL=2.08×[(WT/59.95)^1.07]×[(GFR/36.67)^0.698], 195 plasma Cmin) it was 2.08 L/h. In addition, the “Influential factor for WT on V (θ3)” value in data set [2] (final model, power function exponent) was found to be 0.934.

The values above are taken from paper PMC7573825 (Frontiers in Pharmacology, 2020).
